Laboratory results reported in patent publication US11844866B2, “Gastroretentive extended release dosage form” (Novelstar Pharmaceuticals, Inc., priority 2020, dated 2023).
Like-named read-outs stand apart in the source and are kept apart here. Blank lines part the entries; values can stand above or below the compound they belong to.

Legend:
[1] = API stability studies (stress, long term, accelerated; enantiomer interconversion); assay type: physicochemical
Text: Polymorphism has been observed for Apremilast and seven polymorphic forms (designated A-G) of the active substance were identified.
An amorphous form generally provides better solubility and bioavailability than the crystalline form and may be useful for formulations which can have better solubility, and compressibility etc. which are important for formulation and product manufacturing.

[2] = API particle size (d90); assay type: physicochemical; conditions: API particles
[3] = on storage and in vivo; cited from earlier work
[4] = cited from earlier work
[5] = previously reported dosage form; cited from earlier work
[6] = Solubility of Tofacitinib citrate in different pH media and water; assay type: physicochemical; conditions: 37 °C, read-out: Solubility @37° C., mg/mL for 6 hours
Description: The active substance is a white to off-white solid, slightly soluble in water (2.9 mg/mL) and non-hygroscopic. Tofacitinib contains two chiral centers at C3 and C4. The active substance is the enantiomer with absolute configuration (R) for both the C-3 and the C-4 positions. The overall stereochemistry of tofacitinib is therefore considered as critical and is assured by the quality of the starting materials and the route of synthesis design.
Polymorphism has been studied for the active substance. The crystalline citrate salt, Form A, has been the sole development form of the active substance used in all toxicology and clinical studies. The solubility Tofacitinib citrate is pH dependent, the solubility is decried with pH increasing. […] The pH dependent solubility can lead to pH-dependent in vivo drug release from sustained release matrices. Drug release varies as a function of movement through segments of the gastrointestinal tract with different pH. […] The Tofacitinib citrate gastric retention drug delivery system that would provide the highest bioavailability are very desirable because the drug active has highest solubility in the stomach.

[7] = slightly soluble; cited from earlier work

- stability after exposing to different stress test conditions ([1]; stress test conditions): stable
- particle size d90 [2]: 8 μm
SMILES: CCOc1cc([C@@H](CS(C)(=O)=O)N2C(=O)c3cccc(NC(C)=O)c3C2=O)ccc1OC [Apremilast Form B]

- stability after 6 months ([1]; stress conditions, long term 25° C./60% RH and accelerated 40° C./75% RH): stable
- particle size d90 ([2]; listed as Apremilast amorphous form): 22 μm
SMILES: CCOc1cc([C@@H](CS(C)(=O)=O)N2C(=O)c3cccc(NC(C)=O)c3C2=O)ccc1OC [Apremilast amorphous]

SMILES: CCOc1cc([C@@H](CS(C)(=O)=O)N2C(=O)c3cccc(NC(C)=O)c3C2=O)ccc1OC [Apremilast, (+) enantiomer of 2-[1-(3-ethoxy-4-methoxyphenyl)-2-methanesulfonylethyl]-4-acetylaminoisoindolin-1,3-dione]
- interconversion of (S)-enantiomer to (R)-enantiomer [3]: no interconversion
- solubility in aqueous buffers ([4]; irrespective of pH range): practically insoluble
- Biopharmaceutical Classification System class ([4]; low solubility and low permeability): BCS Class 4
- share of absorption taking place in the proximal small bowel [5]: about 93%

SMILES: C[C@@H]1CCN(C(=O)CC#N)C[C@@H]1N(C)c1ncnc2[nH]ccc12.O=C(O)CC(O)(CC(=O)O)C(=O)O [Tofacitinib citrate, 3-((3R,4R)-4-methyl-3-(methyl(7H-pyrrolo[2,3-d]pyrimidin-4 yl)amino)piperidin-1-yl)-3-oxopropanenitrile, 2-hydroxypropane-1,2,3-tricarboxylic acid]
- solubility at 6 h ([6]; pH 1.18, simulated gastric fluid, thermodynamic from solid, 0.1N HCl, final pH observed 1.18): 27.8 mg/mL
- solubility at 6 h ([6]; pH 4.9, thermodynamic from solid, Water, final pH observed 4.90): 2.9 mg/mL
- solubility at 6 h ([6]; pH 4.5 medium, aqueous buffer, thermodynamic from solid, pH 4.5, final pH observed 4.50): 4.57 mg/mL
- solubility at 6 h ([6]; pH 6.8 medium, aqueous buffer, thermodynamic from solid, pH 6.8, final pH observed 6.78): 2.03 mg/mL
- solubility in water [7]: 2900 µg/mL
